Test results taken from PubChem BioAssay AID1963828 (Molecular Pharmacology Branch, DTP, NCI, 2024).

System: 991263-137-R1-J2-PDC complex spheroid viability
Experiment: Anticancer human tumor 991263-137-R1-J2-PDC patient-derived colon adenocarcinoma cell line growth inhibition [POLQ]
Details: for IC50: curve of first compound; for viability, T/C: stronger effect = lower value
In short: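 Complex spheroid viability model combining PDC tumour cells with endothelial (HUVEC) and MSC stromal cells. Novobiocin, ART-558 or RP6685 were tested singly and in combination with standard and investigational anticancer drugs. Each was titrated in half-log steps from near clinical Cmax, or from 10 microM where Cmax was unknown.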
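Further: spheroids exposed to compounds for 7 days before readout.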
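Wherever viability, T/C is given: 100% = DMSO vehicle control viability.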

In the case of CC(=O)O[C@H]1C(=O)[C@@]2(C)[C@H]([C@H](OC(=O)c3ccccc3)[C@]3(O)C[C@H](OC(=O)[C@H](O)[C@@H](NC(=O)c4ccccc4)c4ccccc4)C(C)=C1C3(C)C)[C@]1(OC(C)=O)CO[C@@H]1C[C@@H]2O + Cc1cccc(N(C)C(=O)C2C(O)CCN2c2nc(C)cc(C(F)(F)F)c2C#N)c1, the IC50 (second compound 0.0316 µM) is reported as 1360 nM, the IC50 (second compound 0.1 µM) is reported as 1830 nM and the IC50 (second compound 0.316 µM) is reported as 1040 nM. For the same compound, the IC50 (second compound 1 µM) was 825 nM, the IC50 (second compound 3.16 µM) was 1510 nM and the IC50 (second compound 10 µM) was 295 nM. The viability, T/C (second compound 0.0316 µM, first compound 0.00949 µM) was 80.4%, the viability, T/C (second compound 0.0316 µM, first compound 0.03 µM) was 85.6% and the viability, T/C (second compound 0.0316 µM, first compound 0.0949 µM) was 85.2%. The viability, T/C (second compound 0.0316 µM, first compound 0.3 µM) was 67.5%, the viability, T/C (second compound 0.0316 µM, first compound 0.949 µM) was 53.2% and the viability, T/C (second compound 0.0316 µM, first compound 3 µM) was 46.1%. For the same compound, the viability, T/C (second compound 0.1 µM, first compound 0.00949 µM) was 93.4%, the viability, T/C (second compound 0.1 µM, first compound 0.03 µM) was 92.5% and the viability, T/C (second compound 0.1 µM, first compound 0.0949 µM) was 84.2%. The viability, T/C (second compound 0.1 µM, first compound 0.3 µM) was 74%, the viability, T/C (second compound 0.1 µM, first compound 0.949 µM) was 57.9% and the viability, T/C (second compound 0.1 µM, first compound 3 µM) was 44%. The viability, T/C (second compound 0.316 µM, first compound 0.00949 µM) was 85.8%, the viability, T/C (second compound 0.316 µM, first compound 0.03 µM) was 86.3% and the viability, T/C (second compound 0.316 µM, first compound 0.0949 µM) was 83.4%. It also gave a viability, T/C (second compound 0.316 µM, first compound 0.3 µM) of 74.1%, a viability, T/C (second compound 0.316 µM, first compound 0.949 µM) of 50.1% and a viability, T/C (second compound 0.316 µM, first compound 3 µM) of 46.1%. The viability, T/C (second compound 1 µM, first compound 0.00949 µM) was 82.6%, the viability, T/C (second compound 1 µM, first compound 0.03 µM) was 89.2% and the viability, T/C (second compound 1 µM, first compound 0.0949 µM) was 85%. It also gave a viability, T/C (second compound 1 µM, first compound 0.3 µM) of 63.2%, a viability, T/C (second compound 1 µM, first compound 0.949 µM) of 51.3% and a viability, T/C (second compound 1 µM, first compound 3 µM) of 42.8%. For the same compound, the viability, T/C (second compound 3.16 µM, first compound 0.00949 µM) was 87.3%, the viability, T/C (second compound 3.16 µM, first compound 0.03 µM) was 79.5% and the viability, T/C (second compound 3.16 µM, first compound 0.0949 µM) was 80.7%. It also gave a viability, T/C (second compound 3.16 µM, first compound 0.3 µM) of 63.8%, a viability, T/C (second compound 3.16 µM, first compound 0.949 µM) of 56% and a viability, T/C (second compound 3.16 µM, first compound 3 µM) of 42.1%. The viability, T/C (second compound 10 µM, first compound 0.00949 µM) was 79.9%, the viability, T/C (second compound 10 µM, first compound 0.03 µM) was 88.4% and the viability, T/C (second compound 10 µM, first compound 0.0949 µM) was 69.5%. For the same compound, the viability, T/C (second compound 10 µM, first compound 0.3 µM) was 51.6%, the viability, T/C (second compound 10 µM, first compound 0.949 µM) was 50.7% and the viability, T/C (second compound 10 µM, first compound 3 µM) was 46.7%.

Work on CC[C@@]1(O)C(=O)OCc2c1cc1n(c2=O)Cc2cc3c(CN(C)C)c(O)ccc3nc2-1 + Cc1cccc(N(C)C(=O)C2C(O)CCN2c2nc(C)cc(C(F)(F)F)c2C#N)c1 yielded an IC50 (second compound 0.0316 µM) of over 100 nM, an IC50 (second compound 0.1 µM) of over 100 nM and an IC50 (second compound 0.316 µM) of over 100 nM. The IC50 (second compound 1 µM) was over 100 nM, the IC50 (second compound 3.16 µM) was over 100 nM and the IC50 (second compound 10 µM) was over 100 nM. It also gave a viability, T/C (second compound 0.0316 µM, first compound 0.000316 µM) of 111%, a viability, T/C (second compound 0.0316 µM, first compound 0.001 µM) of 115% and a viability, T/C (second compound 0.0316 µM, first compound 0.00316 µM) of 111%. The viability, T/C (second compound 0.0316 µM, first compound 0.01 µM) was 106%, the viability, T/C (second compound 0.0316 µM, first compound 0.0316 µM) was 114% and the viability, T/C (second compound 0.0316 µM, first compound 0.1 µM) was 97.3%. It also gave a viability, T/C (second compound 0.1 µM, first compound 0.000316 µM) of 112%, a viability, T/C (second compound 0.1 µM, first compound 0.001 µM) of 111% and a viability, T/C (second compound 0.1 µM, first compound 0.00316 µM) of 94%. For the same compound, the viability, T/C (second compound 0.1 µM, first compound 0.01 µM) was 118%, the viability, T/C (second compound 0.1 µM, first compound 0.0316 µM) was 105% and the viability, T/C (second compound 0.1 µM, first compound 0.1 µM) was 92.8%. For the same compound, the viability, T/C (second compound 0.316 µM, first compound 0.000316 µM) was 117%, the viability, T/C (second compound 0.316 µM, first compound 0.001 µM) was 130% and the viability, T/C (second compound 0.316 µM, first compound 0.00316 µM) was 101%. For the same compound, the viability, T/C (second compound 0.316 µM, first compound 0.01 µM) was 95.9%, the viability, T/C (second compound 0.316 µM, first compound 0.0316 µM) was 101% and the viability, T/C (second compound 0.316 µM, first compound 0.1 µM) was 91.4%. For the same compound, the viability, T/C (second compound 1 µM, first compound 0.000316 µM) was 111%, the viability, T/C (second compound 1 µM, first compound 0.001 µM) was 114% and the viability, T/C (second compound 1 µM, first compound 0.00316 µM) was 109%. It also gave a viability, T/C (second compound 1 µM, first compound 0.01 µM) of 118%, a viability, T/C (second compound 1 µM, first compound 0.0316 µM) of 110% and a viability, T/C (second compound 1 µM, first compound 0.1 µM) of 81.5%. It also gave a viability, T/C (second compound 3.16 µM, first compound 0.000316 µM) of 101%, a viability, T/C (second compound 3.16 µM, first compound 0.001 µM) of 98.3% and a viability, T/C (second compound 3.16 µM, first compound 0.00316 µM) of 98.2%. For the same compound, the viability, T/C (second compound 3.16 µM, first compound 0.01 µM) was 86.6%, the viability, T/C (second compound 3.16 µM, first compound 0.0316 µM) was 96.2% and the viability, T/C (second compound 3.16 µM, first compound 0.1 µM) was 91.3%. The viability, T/C (second compound 10 µM, first compound 0.000316 µM) was 117%, the viability, T/C (second compound 10 µM, first compound 0.001 µM) was 120% and the viability, T/C (second compound 10 µM, first compound 0.00316 µM) was 108%. For the same compound, the viability, T/C (second compound 10 µM, first compound 0.01 µM) was 97.5%, the viability, T/C (second compound 10 µM, first compound 0.0316 µM) was 90.8% and the viability, T/C (second compound 10 µM, first compound 0.1 µM) was 77%.
